Values joined by “and” are separate entries in the source; they are usually repeats but may differ in a detail not shown here. Identical values can stand only once.
Columns and labels:
[1] = biological target: T1, Porcine synovial collagenase (Sus scrofa, UniProt P21692); experiment: Porcine synovial collagenase activity with type I (calf skin) collagen, gel densitometry (PSC/CSC); assay type: biochemical; details: acid-soluble calf skin collagen 0.8 μM, 35° C., pH 7.7; a range means 50% inhibition lay between the values; successive lines per compound = diastereomers, higher C18 mobility first
T1 construct: purified porcine synovial collagenase; from tissue; host or cells: pig synovium (synovial enzyme, purified)
T1 sequence (P21692 100-469): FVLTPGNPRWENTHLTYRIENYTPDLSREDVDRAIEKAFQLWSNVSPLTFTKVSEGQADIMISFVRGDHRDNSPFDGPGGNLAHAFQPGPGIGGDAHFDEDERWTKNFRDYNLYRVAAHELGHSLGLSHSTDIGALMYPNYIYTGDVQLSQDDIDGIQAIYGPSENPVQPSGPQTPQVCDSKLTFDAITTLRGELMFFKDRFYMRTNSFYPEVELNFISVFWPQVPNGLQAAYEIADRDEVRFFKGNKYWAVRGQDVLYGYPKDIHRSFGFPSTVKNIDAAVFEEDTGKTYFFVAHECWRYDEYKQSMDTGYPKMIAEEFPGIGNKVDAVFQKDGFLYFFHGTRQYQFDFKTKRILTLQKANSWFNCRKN
Experimental: Porcine synovial collagenase activity (PSC) was measured with type I collagen essentially as described by Darlak et al. (1990). Varying amounts of inhibitor were added to the acid-soluble calf skin collagen (0.8 μM) at 35° C. in 0.05M tris-HCl, 0.2M NaCl, 5 mM CaCl2, 0.25M glucose, pH 7.7. Collagen degradation was initiated by adding purified porcine synovial collagenase and the reactions were stopped by the addition of an equal volume of sample dilution buffer (Laemmli, 1970) followed by boiling for 2-3 min. Undegraded collagen was resolved from its degradation products by polyacrylamide slab gel electrophoresis as described by Laemmli (1970). The gels were fixed in isopropanol/acetic acid/water (100:40:300 v/v) and then stained with 1% Coomassie Blue R-250 in fixing solution. After destaining, the percentage of α1 chain converted to the corresponding TC fragment was estimated by densitometry using a Bio-Rad model 610 video densitometer. IC50 values were estimated from the dependence of the percent of collagen degraded on inhibitor concentration.

pig synovial collagenase = biological target: T2, pig synovial collagenase (Sus scrofa, UniProt P21692); experiment: Pig synovial collagenase with fluorogenic substrate FS-7 (PSC/FS-7); assay type: biochemical; details: substrate Dnp-Pro-Leu-Gly-Leu-Trp-Ala-D-Arg-NH2; successive lines per compound = diastereomers, higher C18 mobility first
T2 construct: purified porcine synovial collagenase; from tissue; host or cells: pig synovium (synovial enzyme, purified)
T2 sequence (P21692 100-469): T1 sequence (P21692 100-469)
Experimental: [The source words this procedure for another target and reports this target under the same test.] Recombinant human fibroblast collagenase (rHFC) and porcine synovial gelatinase (PSG) were assayed at 37° C. by the procedure of Stack and Gray (1989). The fluorogenic metalloproteinase substrate Dnp-Pro-Leu-Gly-Leu-Trp-Ala-D-Arg-NH2 was dissolved at an initial concentration of 10 μM in 0.05M tris-HCl, 0.2M NaCl, 5 mM CaCl2, pH 7.7. Hydrolysis of the substrate at the Gly-Leu bond results in an increase in fluorescence that was monitored using an SLM-500C spectrofluorometer with excitation at 280 nm and emission at 346 nm. The reaction was initiated by addition of the enzyme; after determining the initial rate of substrate hydrolysis an aliquot of inhibitor was added and the inhibited rate redetermined. For lower affinity inhibitors (IC50>>[E0 ], where E0 is the enzyme concentration), inhibitor potencies were determined from plots of log (A0 /Ai-1) vs. log [Inhibitor], where A0 is the activity measured in the absence of inhibitor and Ai is that measured in the presence of inhibitor at concentration i (Ambrose et al., 1950). For high affinity inhibitors (IC50 =[E0 ]) only an upper limit of inhibitor potency could be estimated (Dixon and Webb, 1979).

Row | IC50 [1] | IC50 (pig synovial collagenase) [µM] | Compound
1 | 1 to 3 µM | 1.1 | HO--NH--CO--CH2 --CH(CH2 CH(CH3)2 --CO--Nal--Pro--NH2 [Compound 12]
2 | 1 µM and > 3 µM |  | CC(C)CC(C(=O)N[C@@H](Cc1ccccc1)C(=O)N[C@@H](C)C(N)=O)C(C)C(=O)NO (single isomer, unassigned) [Compound 16, H4[ONHCOCH(CH3)]--DL--Leu Phe Ala--NH2]
3 | 300 to 500 µM | 280 | H4[ONHCO]--DL--Leu I'-Hal--NH2 [Compound 7]
4 | 25 to 30 µM | 21 | H4[ONHCO]--DL--Leu Hal Ala--NH2 [Compound 5]
5 | 180 µM | 370 | H4[ONHCO]--DL--Leu Trp--NH2 [Compound 2]
6 | 250 µM | 700 | H4[ONHCO]--DL--Leu Phe--NH2 [Compound 1]

From patent US5387610A, “Peptide derivatives of collagenase inhibitor” (Research Corporation Technologies, Inc., priority 1992, dated 1995)
